How the values were obtained:
Format in all cases: in vivo
Heliothis armigera = Heliothis armigera test, spray treatment dripping wet (cotton plants); conditions: alone; for Kill in % after 7d: Table A1; for Kill in % after 3d: Table A2
Protocol: (§1) To produce a suitable solution, 1 part by weight of formulation is mixed with the stated amount of water and adjuvant and the concentrate is diluted with water to the desired concentration.
Cotton plants (Gossypium hirsutum) are sprayed to runoff point with the desired use concentration and populated with caterpillars of the cotton bollworm (Heliothis armigera) while the leaves are still moist.
(§2) After the desired period of time, the kill in % is determined. 100% means that all larvae have been killed; 0% means that none of the larvae have been killed. The determined kill rates are entered into Colby's formula (see above).

Spodoptera frugiperda = Spodoptera frugiperda test, spray treatment dripping wet (corn plants); conditions: Table C2; 100 ppm; alone
Protocol: as §1
Spodoptera frugiperda Test
Corn plants (Zea mais) are sprayed to runoff point with the desired use concentration and populated with caterpillars of the armyworm (Spodoptera frugiperda) while the leaves are still moist.
as §2

Plutella xylostella = Plutella xylostella test, spray treatment dripping wet (cabbage plants); conditions: alone; for Kill in % after 7d: Table B1
Protocol: as §1
Cabbage plants (Brassica pekinesis) are sprayed to runoff point with the desired use concentration and populated with larvae of the diamondback moth (Plutella xylostella) while the leaves are still moist.
as §2

Aphis gossypii = Aphis gossypii test, spray application dripping wet (cotton plants); conditions: alone
Protocol: (§3) Solvent: water Adjuvant: rapeseed oil methyl ester
(§4) To produce a suitable application solution, 1 part by weight of the formulation is mixed with the appropriate amount of water and the adjuvant and the concentrate is diluted with water to the desired concentration.
Cotton plants (Gossypium herbaceum) which are heavily infested by the cotton aphid (Aphis gossypii) are sprayed to runoff point with the desired concentration of the application solution.
(§5) After the desired period of time, the kill in % is determined. 100% means that all aphids have been killed; 0% means that none of the aphids have been killed. The determined kill rates are entered into Colby's formula (see sheet 1).

Metopolophium dirhodum = Metopolophium dirhodum test, spray application dripping wet (barley plants); conditions: 100 ppm, alone
Protocol: as §3, §4
Metopolophium dirhodum Test
Barley plants (Hordeum vulgare) which are heavily infested by a cereal aphid (Metopolophium dirhodum) are sprayed to runoff point with the desired concentration of the application solution.
as §5

Myzus persicae = Myzus persicae test, spray application dripping wet (bell pepper plants); conditions: alone; for Kill in % after 3d: Table F1; for Kill in % after 7d: Table F2
Protocol: as §3, §4
Bell pepper plants (Capsicum sativum) which are heavily infested by the green peach aphid (Myzus persicae) are sprayed to runoff point with the desired concentration of the application solution.
as §5

C=CCN(CC=C)C(=O)C(Cl)Cl [dichlormid, 2,2-dichloro-N,N-di-2-propenylacetamide]
0%: Kill in % after 7d (Heliothis armigera; 100 ppm) | Kill in % after 3d (Heliothis armigera; 100 ppm) | Kill in % after 3d (Spodoptera frugiperda) | Kill in % after 3d (Plutella xylostella; Table B2, 100 ppm) | Kill in % after 7d (Aphis gossypii; Table D1, 100 ppm) | Kill in % after 7d (Aphis gossypii; Table D2, 50 ppm) | Kill in % after 7d (Metopolophium dirhodum; Table E1) | Kill in % after 7d (Metopolophium dirhodum; Table E2) | Kill in % after 3d (Myzus persicae; 25 ppm) | Kill in % after 7d (Myzus persicae; 100 ppm)

Clc1cc(Cl)nc(-c2ccccc2)n1 [fenclorim, 4,6-dichloro-2-phenylpyrimidine]
0%: Kill in % after 3d (Heliothis armigera; 100 ppm) | Kill in % after 3d (Spodoptera frugiperda) | Kill in % after 7d (Plutella xylostella; 25 ppm) | Kill in % after 7d (Aphis gossypii; Table D1, 100 ppm) | Kill in % after 7d (Aphis gossypii; Table D2, 100 ppm) | Kill in % after 7d (Metopolophium dirhodum; Table E1) | Kill in % after 7d (Metopolophium dirhodum; Table E2) | Kill in % after 3d (Myzus persicae; 25 ppm) | Kill in % after 7d (Myzus persicae; 100 ppm)

CC1(C)OC(c2ccco2)CN1C(=O)C(Cl)Cl (stereo not shown) [furilazole, 3-dichloroacetyl-5-(2-furanyl)-2,2-dimethyloxazolidine]
0%: Kill in % after 7d (Heliothis armigera; 25 ppm) | Kill in % after 3d (Heliothis armigera; 50 ppm) | Kill in % after 3d (Spodoptera frugiperda) | Kill in % after 7d (Plutella xylostella; 50 ppm) | Kill in % after 7d (Aphis gossypii; Table D1, 100 ppm) | Kill in % after 7d (Aphis gossypii; Table D2, 100 ppm) | Kill in % after 7d (Metopolophium dirhodum; Table E1) | Kill in % after 7d (Metopolophium dirhodum; Table E2) | Kill in % after 3d (Myzus persicae; 100 ppm)

Reference: US20080221167A1, “Selective Insecticides Based on Haloalkylnicotinic Acid Derivatives, Anthranilic Acid Diamides, or Phthalic Acid Diamides and Safeners” (priority 2004, published 2008)
